From paper PMC9147645, “Food-Derived β-Carboline Alkaloids Ameliorate Lipid Droplet Accumulation in Human Hepatocytes” (Pharmaceuticals, 2022) come the findings set out here.

A short description of data set [1]: Cytotoxicity / lipocytotoxicity assay (CCK-8). Type of data set: cell-based. To be noted: human, HepG2 cells. On the procedure: HepG2 cells were purchased from the American Type Culture Collection (ATCC) (Manassas, VA, USA). High-glucose DMEM containing 10% heat-inactivated FBS and 1% penicillin–streptomycin was maintained under a humidified atmosphere at 37 °C with 5% CO2, as indicated in the Supplementary Materials. HepG2 cells (1.5 × 10^4/well) in DMEM supplemented with 10% FBS were seeded into a 96-well plate. A cytotoxicity assay was performed according to the manufacturer’s protocol using CCK-8 (Dojindo Molecular Technologies), as indicated in the Supplementary Materials (Materials and Methods). […]
2 1.2. Cytotoxicity assay […] HepG2 cells (1.5 × 10^4/well) in DMEM supplemented with 10% FBS were under reduced pressure, and H2O (25 ml) was added. Then the solution was seeded into a 96-well plate. The cytotoxicity assay was done using CCK-8 extracted with AcOEt after adjusted to 9–10 with aq. NaOH solution. The organic (Dojindo Molecular Technologies) according to the manufacturer's protocol. […]
Compounds 1 and 3. To a stirred soln. Compound 10 (218 mg, 1.00 mmol), 5- Technologies, Rockville, USA) according to the manufacturer ’sinstructions. Cell Acetoxymethylfurfural (1, 168 mg, 1.00 mmol) and Nano CuO (7.955 mg, 0.1 suspension (100 μl/well) was inoculated in a 96-well plate (Iwaki, Japan), and mmol) were added 6 ml of DMF. The mixture was stirred at 90℃ for 16 h. The pH once monolayers were observed, treatments were added (n = 3 per each of the aqueous solution was adjusted to 9–10 with aq NaOH solution after adding treatment). Cells were then pre-incubated with the treatments for 24 h before H O. After extracting the solution with AcOEt, the organic layer was washed with assay to determine cell viability.Absorbance was measured at 450 nm using a 2 plate reader (PerkinElmer-ARVO-MX-ID 10533234, Japan). […]
[5-(hydroxymethyl)-2-furanyl]-1H-pyrido[3,4-b]indole-3-carboxylic acid (2, CAS culture medium was removed from each dish, and cells were washed Registry Number 896466-77-6); flazine methyl ester acetate (3, CAS Registry and rinsed with 1× PBS. Cells were then fixed for 20 min in 10% formalin and Number 104537-95-3); flazin (4, CAS Registry Number 100041-05-2); washed twice using PBS. Then, Oil Red O dye was added to the dishes and incubated for 20 min. Finally, the dye was removed from each dish and cells 5

Data set [2] has as its system HepG2 cells. In words: Accumulated triacylglycerol species by LC-MS/MS in oleic acid-loaded cells. To be noted: for Number of accumulated triacylglycerol molecular species inhibited: 24 h of treatment; for inhibition at 200 µM: Homo sapiens, HepG2, 24 h. Type of data set: cell-based, human. As for the experimental part: Tested compounds (200 μM) were added to cultured HepG2 cells loaded with oleic acid and incubated at 37 °C for 24 h, as previously described. Centrifuged samples were analyzed using an LC/MS orbitrap. Chromatographic separation was performed using a Shimadzu Prominence UHPLC system with a binary solvent delivery system and a standard auto-sampler. An Atlantis® T3 column (2.1 × 150 mm, 3 μm, Waters) was used for separation, with a flow rate of 200 μL/min. The mobile phase consisted of A: 10 mM ammonium acetate solution; B: isopropanol; and C: methanol. Positive mode: 0–1 min, 6% B and 90% C; 1–10 min, 83% B and 15% C; 10–19 min, 83% B and 15% C; 19–19.5 min, 6% B and 90% C; 19.5–22 min, 6% B and 90% C. The injection volume was 10 μL. The column temperature was maintained at 40 °C. The LC/MS parameters were as previously described.

In data set [3] the test system is adipose triglyceride lipase (ATGL). Description: Gene expression, real-time PCR. To be noted: HepG2 + 0.25 mM OA, 200 and 400 μM compound, 24 h, normalized to GAPDH. In kind it is cell-based, human. As for the experimental part:
(§1) To better understand how the supplementation of compounds 2 and 4 during LDA in HepG2 cells affects lipolysis and lipogenesis, we performed gene expression analysis using real-time PCR under the following conditions. Briefly, HepG2 cells (2.0 × 10^5/well) were seeded in 24-well plates (n = 6 per treatment). After 24 h, the cells were treated with PBS, 0.25 mM OA only, 0.25 mM OA plus 200 and 400 μM compound 2, or 0.25 mM OA plus 200 and 400 μM compound 4. After another 24 h, RNA extraction and complementary DNA synthesis were performed, according to the manufacturer’s instructions and a previous study. The sequences of the primers used are shown in the Supplementary Materials, Table S1: adipose triglyceride lipase (ATGL), diacylglycerol O-acyltransferase 1 (DGAT1), sterol regulatory element-binding protein 1 (SREBP1), fatty acid synthase (FASN), stearoyl-CoA desaturase 1 (SCD1), and glyceraldehyde-3-phosphate dehydrogenase (GAPDH). PCR was performed using a CFX 96 Real-Time PCR Detection System (Bio-Rad Laboratories Inc., Hercules, CA, USA) under the following conditions: 95 °C for 30 s, followed by 40 cycles at 95 °C for 5 s, 60 °C for 5 s, and 72 °C for 10 s. All gene expression levels were analyzed using the ΔΔCt method and normalized to GAPDH. Data were represented as relative expression based on that of the control group.
For orientation: In qPCR the cycle at which signal appears reflects the starting amount.

In data set [4] the test system is diacylglycerol O-acyltransferase 1 (DGAT1). Description: Gene expression, real-time PCR. In kind it is cell-based, human. To be noted: HepG2 + 0.25 mM OA, 200 and 400 μM compound, 24 h, normalized to GAPDH. On the procedure:
as §1

Data set [5] has as its system fatty acid synthase (FASN). Description: Gene expression, real-time PCR. Type of data set: cell-based, human. The settings on record: HepG2 + 0.25 mM OA, 200 and 400 μM compound, 24 h, normalized to GAPDH. On the procedure:
as §1

The subject of data set [6] is stearoyl-CoA desaturase 1 (SCD1). Description: Gene expression, real-time PCR. To be noted: HepG2 + 0.25 mM OA, 200 and 400 μM compound, 24 h, normalized to GAPDH. In kind it is cell-based, human. As for the experimental part: as §1
Data set [7] has as its system sterol regulatory element-binding protein 1 (SREBP1). Description: Gene expression, real-time PCR. To be noted: HepG2 + 0.25 mM OA, 200 and 400 μM compound, 24 h, normalized to GAPDH. Type of data set: cell-based, human. On the procedure:
as §1

The subject of data set [8] is HepG2 cells. Description: LD fluorescence staining assay (Oil Red O / Hoechst). Type of data set: cell-based, human. To be noted: 200 μM, HepG2 loaded with OA, Oil Red O and Hoechst 33,342. On the procedure:
LD fluorescence staining assay: The staining was performed with modifications based on our previous report. HepG2 cells were seeded in 35 mm glass bottom dishes at 4.0 × 10^5/plate. After 24 h of incubation, OA and all samples were processed for 24 h. Oil Red O staining was performed, then the Hoechst reagent solution mixed with PBS was added and incubated in the dark for 25 min. Images were then captured using a BZ-9000 fluorescence microscope (Keyence Co., Ltd., Osaka, Japan).

The mark [9] stands for this setting: HepG2, DMEM loaded with fatty acid (+OA), read-out: Lipocytotoxicity (LC50), concentration at which 50% of cells died.
Setting [10] is: HepG2, DMEM without fatty acid (−OA), read-out: Cytotoxicity (CC50), concentration at which 50% of cells died.
Where [11] appears, read: 24 h, HepG2 + OA, vs control (+OA), read-out: Inhibition of accumulated TAG 48:4.
Where [12] appears, read: 24 h, HepG2 + OA, vs control (+OA), read-out: Inhibition of accumulated TAG 50:3.
Setting [13] is: 24 h, HepG2 + OA, vs control (+OA), read-out: Inhibition of accumulated TAG 50:5.
Setting [14] is: 24 h, HepG2 + OA, vs control (+OA), read-out: Inhibition of accumulated TAG 52:4.
[15] abbreviates: 24 h, HepG2 + OA, vs control (+OA), read-out: Inhibition of accumulated TAG 52:5.
Where [16] appears, read: 24 h, HepG2 + OA, vs control (+OA), read-out: Inhibition of accumulated TAG 52:6.
Where [17] appears, read: 24 h, HepG2 + OA, vs control (+OA), read-out: Inhibition of accumulated TAG 52.7.
Setting [18] is: 24 h, HepG2 + OA, vs control (+OA), read-out: Inhibition of accumulated TAG 54:7.
The mark [19] stands for this setting: 24 h, HepG2 + OA, vs control (+OA), read-out: Inhibition of accumulated TAG 56.9.

SMILES strings stand for the structures. Read-outs that look alike come from different tables or passages of the source.

A word on the inhibition: it is the change of the read-out against control, counted positive when it falls. On to `O=C(O)c1cc2c([nH]c3ccccc32)c(-c2ccc(CO)o2)n1` [Compound 4, flazin], for which the CC50 at 24 h was 600 µM in data set [1] (setting [9]) and over 700 µM in data set [1] (setting [10]). In the data set on HepG2 cells [2] (200 μM, 24 h, HepG2 + OA), the “Inhibition of TAGs 52:6; 52:7; 56:10; 56:9; and 62:4 (in words)” value is listed as “total inhibition”. Further, the “Number of accumulated triacylglycerol molecular species inhibited” value in the data set with HepG2 cells [2] (200 μM, HepG2 + OA) is on record as “twenty”. Also, the inhibition at 200 µM turned out to be 28.9% in the data set with HepG2 cells [2] (24 h, HepG2 + OA, vs control (+OA), read-out: Inhibition of accumulated TAG 46:3); 39% in the data set with HepG2 cells [2] (setting [11]); 49.4% in the data set with HepG2 cells [2] (setting [12]); 72.5% with HepG2 cells [2] (setting [13]); 51.2% in the data set with HepG2 cells [2] (setting [14]); 49.1% in the data set on HepG2 cells [2] (setting [15]). Besides, the inhibition at 200 µM in the data set on HepG2 cells [2] (setting [16]) stood at 65.7%; with HepG2 cells [2] (setting [17]), 70.7%; with HepG2 cells [2] (24 h, HepG2 + OA, vs control (+OA), read-out: Inhibition of accumulated TAG 54:6), 49.4%; in the data set on HepG2 cells [2] (setting [18]), 66.3%; in the data set on HepG2 cells [2] (24 h, HepG2 + OA, vs control (+OA), read-out: Inhibition of accumulated TAG 56:7), 49.1%; with HepG2 cells [2] (24 h, HepG2 + OA, vs control (+OA), read-out: Inhibition of accumulated TAG 56:8), 58.1%. Besides, the inhibition at 200 µM with HepG2 cells [2] (setting [19]) was determined as 71.4%; with HepG2 cells [2] (24 h, HepG2 + OA, vs control (+OA), read-out: Inhibition of accumulated TAG 58:11), 65.2%; with HepG2 cells [2] (24 h, HepG2 + OA, vs control (+OA), read-out: Inhibition of accumulated TAG 60:12), 66.4%; in the data set on HepG2 cells [2] (24 h, HepG2 + OA, vs control (+OA), read-out: Inhibition of accumulated TAG 62:14), 76.4%. For the same molecule, in data set [3], the ATGL gene expression entry is reported as “upregulated”. Also, the DGAT1 gene expression result in data set [4] was “no change”. Further, the FASN gene expression result in data set [5] is on record as “strongly downregulated”. Further, the SCD1 gene expression entry in data set [6] is on record as “strongly downregulated”. In addition, the SREBP1 gene expression result in data set [7] is given as “strongly downregulated”. For the same molecule, the “LDs in fluorescence image” value with HepG2 cells [8] is “significantly inhibited”.
Regarding `O=C(O)C1Cc2c([nH]c3ccccc23)C(c2ccc(CO)o2)N1` (centres unmarked) [Compound 2, 1,2,3,4-tetrahydro-1-(5-(hydroxymethyl)-2-furanyl)-9H-pyrido [3,4-b]indole-3-carboxylic acid], the CC50 at 24 h was 484 µM in data set [1] (setting [9]) and over 700 µM in data set [1] (setting [10]). Besides, in the data set on HepG2 cells [2] (200 μM, HepG2 + OA), the “Number of accumulated triacylglycerol molecular species inhibited” value is given as “twenty-five”. Also, the inhibition at 200 µM turned out to be 23.4% with HepG2 cells [2] (setting [11]); 26.6% in the data set on HepG2 cells [2] (setting [12]); 33.7% in the data set with HepG2 cells [2] (setting [13]); 28.1% in the data set with HepG2 cells [2] (setting [14]); 9.5% in the data set on HepG2 cells [2] (setting [15]); 33.4% in the data set on HepG2 cells [2] (setting [16]). The inhibition at 200 µM is 35.1% in the data set on HepG2 cells [2] (setting [17]); 30% in the data set with HepG2 cells [2] (setting [18]); 45.9% in the data set with HepG2 cells [2] (24 h, HepG2 + OA, vs control (+OA), read-out: Inhibition of accumulated TAG 56:10); 28.3% with HepG2 cells [2] (setting [19]); 50 to 74% in the data set on HepG2 cells [2] (24 h, HepG2 + OA, vs control (+OA), read-out: Inhibition of accumulated TAG 58:12); 25 to 49% with HepG2 cells [2] (24 h, except TAGs 58:12, 46:3, 54:6, and 56:7, read-out: Inhibition of most of the accumulated triacylglycerol molecular species). The ATGL gene expression entry in data set [3] is “upregulated”. The DGAT1 gene expression result in data set [4] is given as “no change”. Moreover, in data set [5], the FASN gene expression result is “significantly downregulated”. The SCD1 gene expression result in data set [6] was “did not induce a significant reduction”. Further, the SREBP1 gene expression result in data set [7] was “significantly downregulated”. Besides, in the data set with HepG2 cells [8], the “LDs in fluorescence image” value was “significantly inhibited”.
